In US20210388012A1, “METHODS AND COMPOSITIONS FOR PRODRUG FORMS OF SPECTINOMYCIN AND SPECTINAMIDE ANALOGS” (priority 2018, published 2021):

Legend:
in vitro = in vitro ADME; conditions: human plasma, 37° C., read-out: Plasma Stability (Human) t½ (converted)
Protocol: (§1) LC-MS Method 2. Chromatographic separation was performed on an Acquity UPLC BEH C18 1.7 μm, 2.1×50 mm column (Waters Corporation, Milford, Mass.) or a Luna Omega 1.6 μm C18, 2.1×50 mm column (Phenomenex, Torrance, Calif.) using an Acquity ultra performance liquid chromatography system. Data were acquired using Masslynx v. 4.1 and analyzed using the Openlynx software suite. This was coupled to an Acquity photodiode array detector, which acquired UV data from 210-400 nm. The flow was then split, with half directed to an evaporative light scattering detector (ELSD) and half to an SQ mass spectrometer. The total flow rate was 1 mL/min. The sample injection volume was 10 μL. The UPLC column was maintained at 60° C. and the gradient program with either basic mobile phase (A1, 10 mM ammonium bicarbonate in MilliQ H2O; B1, 0.1% formic acid in acetonitrile) or formic mobile phase (A1, 0.1% formic acid in MilliQ H2O; B1, 0.1% formic acid in acetonitrile) based on the compounds' physical and chemical properties. The mass spectrometer was operated in positive-ion mode with electrospray ionization. The conditions were as follows; capillary voltage 3.4 kV, cone voltage 30 V, source temperature 130° C., desolvation temperature 400° C., desolvation gas 800 L/hr, cone gas 100 L/hr. A full scan range from m/z=110-1000 in 0.2 s was used to acquire MS data. The ELSD-drift tube temperature was set at 52° C.
Plasma stability was determined after incubation in human plasma for various incubation time, i.e., incubation times of 0, 3, 24, and 48 hour were used. DMSO stock solutions of test compounds were prepared at 10 mM concentration. 1.8 μL of each test compound was each added directly to 1.8 mL of human plasma to get the final concentration of 10 μM. This compound/matrix was mixed and 70 μL was transferred to 4 time points plates (each in triplicate wells). […] The plasma stability was evaluated via the half-life from least-squares fit of the multiple time points based on first-order kinetics.

[1] = Metabolic stability, human liver microsomal degradation; type: in vitro ADME; conditions: human liver microsomes; read-out: Metabolic Stability (Human) t½ (converted)
Protocol: as §1
The stability of compounds to human liver microsomal degradation, i.e., metabolic stability, was determined as described previously (see North, E. J., et al, Bioorg. Med. Chem. (2013) 21(9):2587-2599) and the rate of degradation was monitored by LC-MS analysis using multiple sampled time points as described herein above in LC-MS Method 2. Metabolic stability was evaluated via the half-life from least squares fit of the concentration remaining at the time points based on first-order kinetics.

[2] = Single ascending maximum tolerated dose study in rat; type: in vivo; conditions: female Sprague-Dawley rats
Protocol: Several compounds were assessed in single ascending maximum tolerated studies. The compounds assessed were 1810; 3408, a prodrug form of compound 1810; 1599, a chloro homologue of compound 1810; and gentamicin, an antimicrobial associated with ototoxicity. The study was carried out in female Sprague-Dawley rats (n=3 per group). All the drug solutions were prepared in water and PLASMA-LYTE A (50:50; […] was obtained from Baxter Healthcare Corporation, Deerfield, Ill.). Each group of rats were fasted overnight with access to water aJ libitum and a fixed volume (2 mL) of drug-containing solution was administered via the jugular vein catheter. Food was withheld for 3 h post dosing. Different phases of the study were classified on five different speeds of i.v, administration; Phase 1: 5 sec, Phase 2: 30 sec, Phase 3: 5 min, Phase 4: 15 min, Phase 5: 30 min. In the first and second phases, a set of predefined dose levels: 10, 25, 50, 75, 100, 150, 300, 350, 400, 450 and 500 mg/kg. Escalation to the next higher dose was conditional upon absence of signs of acute toxicity following the immediate lower dose over a 24 h period. All animals were monitored by visual inspection focused on focus on changes in skin, fur, eyes, and also respiratory, circulatory, autonomic and central nervous systems, along with somatomotor activity and behavior pattern, including tremors, convulsions, salivation, diarrhea, lethargy, sleep and coma. A dose level was deemed an MTD if […] of acute toxicity were observed and that dose was chosen for the second phase of the study where the process was repeated to determine a toxic dose. For third, fourth and fifth phases, dosing solution was infused by a Instech tethering system (Instech Laboratories Inc., Plymouth Meeting, Pa.) where the animal is freely moving within its cage, the catheter connection is held in place by a vascular access harness and a swivel system, and the drug administration is performed via a Harvard Apparatus programmable syringe pump. After dosing, the tether was removed immediately after completion of the infusion and the catheter was flushed with (100 μL) PlasmaLyte A. Surviving animals from the previous dose with no signs of toxicity were re-used in either phases of these studies upon allowing a one day drug washout period.

| Compound | half-life at 10 µM (in vitro) | half-life [1] | MTD ([2]; 5 second IV bolus) | MTD ([2]; 30 second IV bolus) | MTD ([2]; 5 minute IV infusion) | MTD ([2]; 15 minute IV infusion) | MTD ([2]; 30 minute IV infusion) |
| --- | --- | --- | --- | --- | --- | --- | --- |
| CCOP(=O)(OCC)Oc1ccc(CC(=O)N[C@@H]2C[C@@H](C)O[C@H]3O[C@@H]4[C@@H](O)[C@H](NC)[C@H](O)[C@H](NC)[C@H]4O[C@]32O)nc1 [Compound 3906, Diethyl (6-(2-oxo-2-(((2R,4R,4aS, 5aR,6S,7S,8R,9S,9aR,10aS)-4a,7,9-trihydroxy-2-methyl-6,8-bis(methylamino)decahydro-2H-benzo[b]pyrano[2,3-e][1,4]dioxin-4-yl)amino)ethyl)pyridin-3-yl) phosphate] | 1170 min | 217 min |  |  |  |  |  |
| CN[C@@H]1[C@H](O)[C@H](NC)[C@H]2O[C@]3(O)[C@H](O[C@@H]2[C@H]1O)O[C@H](C)C[C@@]3(O)CNCc1ccc(F)c(OP(=O)(O)O)c1 [Compound 3959, 2-fluoro-5-(((((2R,4R,4aS,5aR,6S,7S,8R,9S,9aR,10aS)-4,4a,7,9-tetrahydroxy-2-methyl-6,8-bis(methylamino)decahydro-2H-benzo[b]pyrano[2,3-e][1,4]dioxin-4-yl)methyl)amino)methyl)phenyl dihydrogen phosphate] |  | 110 min |  |  |  |  |  |
| CN[C@@H]1[C@H](O)[C@H](NC)[C@H]2O[C@]3(O)[C@H](O[C@@H]2[C@H]1O)O[C@H](C)C[C@H]3NC(=O)Cc1ccc(-c2ccc(OP(=O)(O)O)cc2)cn1 [Compound 4074, 4-(6-(2-oxo-2-(((2R, 4R, 4aS, 5aR, 6S, 7S, 8R, 9S, 9aR, 10aS)-4a,7,9-trihydroxy-2-methyl-6,8-bis(methyl-amino)decahydro-2H-benzo[b]pyrano[2,3-e][1,4]dioxin-4-yl)amino)ethyl)pyridin-3-yl)phenyl dihydrogen phosphate] | < 5 min | 179 min |  |  |  |  |  |
| gentamicin [reference compound] |  |  | 100 mg/kg | 100 mg/kg | 200 mg/kg | 300 mg/kg | 400 mg/kg |
